Results reported in patent US20240197666A1, “DITERPENOID COMPOUNDS THAT ACT ON PROTEIN KINASE C (PKC)” (K-Gen Therapeutics, Inc., priority 2021, published 2024).
Where “and” joins values, the source holds several entries; their conditions need not be identical. Identical values can stand only once. Like-named read-outs stand apart in the source and are kept apart here.

Key:
A549 cell line = experiment: Proliferation of A549 (CellTiter Glo); type: cell-based; conditions: Homo sapiens, read-out: IC50 μM (A549 Cell Line)
Method: (§1) The diterpenoid compounds were tested in A549, a non-small cell lung cancer cell line harboring a K-Ras activating mutation. Briefly, A549 cells at a density of 1,000 cells/well were seeded in 96-well plates and incubated at 37° C. for 24 hours. A series of different concentrations of compound stocks (500×) were prepared by 3-fold serial dilution in DMSO. These compounds were further diluted in culture media and then added to cells so that the final DMSO concentration was not exceeding 0.25%. After 96 hours of incubation, 50 μL of CellTiter Glo reagent (Promega) was added to each well and luminescence was measured after 10 minutes using EnVision (PerkinElmer). Luminescence from cells treated with DMSO alone was set as Max and % of inhibition was calculated as follows: Inhibition %=(Max-Sample value)/Max×100. Data was analyzed using XL-fit software (ID Business Solutions Ltd.) and IC50, relative IC50, and % of top inhibition was calculated. Some of the compounds in this disclosure were very potent in blocking proliferation of A549 lung cancer cells at low nM range. In addition, potency of inhibiting A549 proliferation correlated well with its binding affinity to PKCs for this series of compounds. In other words, higher affinity binders had stronger inhibitory effects on A549 proliferation. This further support the notion that activation, rather than inhibition, of certain PKC isoforms is required to block proliferation of cancer cells, some of which may harbor K-Ras mutations. This is in sharp contrast to previous literature and common belief that inhibition of PKC is necessary to block cancer cell growth (Kang, 2014, New Journal of Science, 2014:1-36). Data presented here is in agreement with recent findings that many loss-of-function but not gain-of-function mutations of PKC isoforms have been identified in many human cancers (Antal et al., 2015, Cell, 160:489-502).

CT26 tumors = experiment: CT26 tumor after single dose intratumoral treatment, H&E stain and CD31 IHC; type: in vivo, mouse; conditions: for CD31 IHC (counts per mm^2) / H&E Necrotic tumor area (%): individual tumors
Method: Method. Each 6-8 weeks old female Balb/c mouse was implanted with 3×10^5 CT26 mouse colon cancer cells in one flank for tumor development. When the average tumor volume reached 95 mm^3, 21 mice were randomized into different groups and were treated via a single IT injection (20 uL) according to the group assignment (different dose and treatment duration) in the table below. Tumors were harvested at 1h, 7h, or 24h post IT injection, and then fixed and processed for paraffin embedding.
Paraffin blocks were sectioned into […] sections using Leica RM2235 microtome. One section was stained for Hematoxylin-Eosin (H&E) using Leica ST5020-CV5030 stainer integrated workstation according to the Manufacture's procedure. Photos were taken using Nikon DS-Ri2. Another section was processed for IHC staining with the CD31 antibody (BD, Cat #550274) at 1:10 dilution. The stained slides were scanned using Leica Aperio VERSA 8 and the images were analyzed using HALO image analysis software system (Indica Labs).

C1b domain of human PKCδ = biological target: T1, C1b domain of human PKCδ (Homo sapiens, UniProt Q05655); experiment: biochemical; type: binding; conditions: 3H-PDBu competition
T1 construct: Genes encoding C1b domains of human PKCα, δ, ε, θ, and PKD1 (PKCμ) were synthesized; made in house; host or cells: E. coli BL21(DE3)
Method: (§2) Compounds described in this disclosure were tested for binding affinity to C1b domain of PKC isoforms. Compound binding affinity to C1b domain of PKC isoforms was derived from competitive binding assay using radioactive tracer ^3H-PDBu and recombinant GST-C1b or full-length of human PKC proteins based on modified procedures from Methods in Molecular Biology, vol.
(§3) Genes encoding C1b domains of human PKCα, δ, ε, θ, and PKD1 (PKCμ) were synthesized and inserted into pGEX-2TK or pGEX-4T1 vectors for expression and production of GST-C1b proteins in E. coli BL21(DE3) via IPTG induction. The target proteins were purified by glutathione sepharose 4B and followed by ion exchange chromatography if needed to achieve purity >70%. Aliquots of the purified proteins were stored at −80 degree for binding assay (storage buffer: 20 mM Tris pH 8.0, 200 mM NaCl, 10% glycerol, 1 mM DTT).
(§4) The plate was incubated at 37° C. on a shaker at 300 rpm for 10 minutes and then put on ice for 20 minutes. […] The bottom of the filter plate was sealed and 50 μL of MicroScint-20 (PerkinElmer) cocktail was added to each well. ^3H-PDBu trapped in each well was counted using PerkinElmer MicroBeta2 Reader. Data were analyzed using GraphPad Prism5 with the model “log(inhibitor) vs. response-variable slope” to fit the IC50, and then IC50 was transformed to Ki using Cheng-Prusoff equation: Ki=IC50/(1+added radio ligand/Kd). Kd is the binding affinity of each protein preparation to ^3H-PDBu, determined experimentally.

C1b domain of human PKCε = biological target: T2, C1b domain of human PKCε (Homo sapiens, UniProt Q02156); experiment: biochemical; type: binding; conditions: 3H-PDBu competition
T2 construct: Genes encoding C1b domains of human PKCα, δ, ε, θ, and PKD1 (PKCμ) were synthesized; made in house; host or cells: E. coli BL21(DE3)
Method: as §2, §3, §4

C1b domain of human PKCθ = biological target: T3, C1b domain of human PKCθ (Homo sapiens, UniProt Q04759); experiment: biochemical; type: binding; conditions: 3H-PDBu competition
T3 construct: Genes encoding C1b domains of human PKCα, δ, ε, θ, and PKD1 (PKCμ) were synthesized; made in house; host or cells: E. coli BL21(DE3)
T3 sequence (Q04759 231-281 limits assumed): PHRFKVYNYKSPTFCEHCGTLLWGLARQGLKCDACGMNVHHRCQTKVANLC
Method: as §2, §3, §4

Mino (Lymphoma) = experiment: Proliferation of Mino; type: cell-based; conditions: for IC50: Homo sapiens, MINO, read-out: IC50 Mino (Lymphoma)
Method: as §1
(§5) The compounds in this disclosure were tested for their potency in blocking proliferation of a few other cancer cells lines, including K-Ras mutant pancreatic cell lines Panc2.13 and KP-4, leukemia cell line HL-60, and lymphoma cell lines Namalwa and Mino. Similar procedures as in Example 67 were followed. Initial cell numbers seeded in 96-well plates were different for different cell lines: 3000 cells/well for Panc2.13; 800-1000 cells/well for KP-4; 5000 cells/well for HL-60; 5000-10000 cells/well for Namalwa and Mino. A ratio of (IC50 of K101)/(IC50 of compound) (data in parenthesis in Table 5) was used to normalize the compound potency from different assay batches to a common comparator K101.

Panc2.13 (Pancreatic) = experiment: Proliferation of Panc2.13; type: cell-based
Method: as §1, §5

HL-60 (Leukemia) = experiment: Proliferation of HL-60; type: cell-based; conditions: for IC50: Homo sapiens, HL-60, read-out: IC50 HL-60 (Leukemia)
Method: as §1, §5

[1] = tested on: NFκB-driven transcription in HeLa-NFκB luciferase reporter cell line; experiment: NFκB luciferase reporter assay; conditions: Homo sapiens, HeLa, 16 h, read-out: NFκB-luc HeLa cells EC50 (μM)
Method: A HeLa-NFκB luciferase reporter cell line (Wuxi Biology) was used to assess a group of PKC activator compounds for their ability to activate NFκB-driven transcription. […] One set of cells was assayed for luciferase activity (Promega, Cat #E1500) and the other set was assayed to determine the number of viable cells (for cell number normalization) using CellTiter-Glo (CTG) kit (Promega, Cat #G7570) according to manufacture's procedures. Normalized data (luciferase value/CTG value) were analyzed using GraphPad Prism5 to calculate EC50 for each compound (see Table 8).
To assess if activation of PKC is required for these compounds to activate NFκB, several PKC inhibitors including broad-spectrum and conventional PKC inhibitors were tested. In the assay described above, PKC inhibitors were added at the same time as the PKC activator compounds.

Namalwa (Lymphoma) = experiment: Proliferation of Namalwa; type: cell-based; conditions: for IC50: read-out: IC50 Namalwa (Lymphoma)
Method: as §1, §5

KP-4 (Pancreatic) = experiment: Proliferation of KP-4; type: cell-based; conditions: 96 h; read-out: IC50 KP-4 (Pancreatic)
Method: as §1, §5

T1 sequence (Q05655 230-280 limits assumed): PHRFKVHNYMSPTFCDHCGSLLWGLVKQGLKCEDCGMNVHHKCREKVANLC
T2 sequence (Q02156 242-292 limits assumed): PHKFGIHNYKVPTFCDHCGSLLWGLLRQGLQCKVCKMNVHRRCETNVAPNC

Compound	IC50 (A549 cell line; A549, 96 h) [µM]	Ki (C1b domain of human PKCδ) [nM]	Ki (C1b domain of human PKCε) [nM]	Ki (C1b domain of human PKCθ) [nM]	ratio (IC50 of K101)/(IC50 of compound) Mino (Mino (Lymphoma))	IC50 (Mino (Lymphoma)) [nM]	ratio (IC50 of K101)/(IC50 of compound) HL-60 (HL-60 (Leukemia))	IC50 (HL-60 (Leukemia)) [nM]	EC50 [1] [µM]	ratio (IC50 of K101)/(IC50 of compound) Namalwa (Namalwa (Lymphoma))	IC50 (Namalwa (Lymphoma)) [nM]	other results
CC1=C[C@H]2[C@@]3(O)[C@H](C)C[C@]4(OC(=O)[C@H](N)CCCCCCc5ccccc5)[C@H]([C@@H]3C=C(COC(=O)[C@@H](N)C(C)C)C[C@]2(O)C1=O)C4(C)C	–	–	–	–	–	–	–	–	–	–	–	IC50 (A549 cell line; A549, 96 hours, CellTiter Glo): 0.03 to 0.06 µM; CD31 IHC (counts per mm^2) (CT26 tumors; 47.2 μg single IT, 24 h): 163 counts per mm^2 and 111 counts per mm^2; H&E Necrotic tumor area (%) (CT26 tumors; 47.2 μg single IT, 24 h): 40% and 70%; tumors with reduction of CD31 density (CT26 tumors; 47.2 μg, 7h): 2 out of 3; CD31 IHC (counts per mm^2) (CT26 tumors; 141.6 μg single IT, 24 h): 176 counts per mm^2 and 29 counts per mm^2 and 72 counts per mm^2; H&E Necrotic tumor area (%) (CT26 tumors; 141.6 μg single IT, 24 h): 80% (2×) and 90%; CD31 IHC (counts per mm^2) (CT26 tumors; 472 μg single IT, 1 h): 577 counts per mm^2 and 457 counts per mm^2 and 463 counts per mm^2; H&E Necrotic tumor area (%) (CT26 tumors; 472 μg single IT, 1 h): 5% and 3% and 0%; CD31 IHC (counts per mm^2) (CT26 tumors; 472 μg single IT, 7 h): 188 counts per mm^2 and 536 counts per mm^2 and 179 counts per mm^2; H&E Necrotic tumor area (%) (CT26 tumors; 472 μg single IT, 7 h): 10% and 0% and 25%; CD31 IHC (counts per mm^2) (CT26 tumors; 472 μg single IT, 24 h): 155 counts per mm^2 and 187 counts per mm^2 and 118 counts per mm^2; H&E Necrotic tumor area (%) (CT26 tumors; 472 μg single IT, 24 h): 40% and 30% and 90%; massive cell death in tumors (CT26 tumors; all three doses, 24h): up to 90%
CC1=C[C@H]2[C@@]3(O)[C@H](C)C[C@]4(OC(=O)/C=C/c5ccc(C(F)(F)F)cc5)[C@H]([C@@H]3C=C(CO)C[C@]2(O)C1=O)C4(C)C	0.06 to 0.1	10 to 30	10 to 30	10 to 30	–	–	–	–	–	–	–	–
CC1=C[C@H]2[C@@]3(O)[C@H](C)C[C@]4(OC(=O)[C@@H](N)Cc5ccc(C(F)(F)F)cc5)[C@H]([C@@H]3C=C(CO)C[C@]2(O)C1=O)C4(C)C	0.06 to 0.1	–	–	–	6.2	10 to 30	6.43	30 to 60	0.06 to 0.1	1.68	30 to 60	ratio (IC50 of K101)/(IC50 of compound) Panc2.13 (Panc2.13 (Pancreatic)): 6.79; IC50 (Panc2.13 (Pancreatic); read-out: IC50 Panc2.13 (Pancreatic)): 100 to 200 nM; IC50 (KP-4 (Pancreatic)): 100 to 600 nM
CC1=C[C@H]2[C@@]3(O)[C@H](C)C[C@]4(OC(=O)[C@@H](N)CCCCCCc5ccc(C(F)F)cc5)[C@H]([C@@H]3C=C(CO)C[C@]2(O)C1=O)C4(C)C	0.1 to 0.2	10 to 30	–	10 to 30	–	–	–	–	–	–	–	–
CC1=C[C@H]2[C@@]3(O)[C@H](C)C[C@]4(OC(=O)[C@H](N)C(C)(C)c5ccc(C(F)(F)F)cc5)[C@H]([C@@H]3C=C(CO)C[C@]2(O)C1=O)C4(C)C	0.2 to 0.6	10 to 30	10 to 30	10 to 30	3.88	10 to 30	2.75	100 to 200	0.1 to 0.2	0.49	100 to 200	–
